Test results as given in ChEMBL document CHEMBL1142596, “Diterpenes from Leucas aspera inhibiting prostaglandin-induced contractions” (J Nat Prod, 2006).
The source made the active and inactive calls. The calls are words filed in the database; no cut-off is given here.

Key:
Ileum [1] = test: Inhibition of prostaglandin E1-induced contraction in Hartley guinea pig ileum at 39 umol by modified Magnus assay; assay type: functional, tissue-based; conditions: Cavia porcellus
[2] = tested on: Radical scavenging activity; test: Antioxidant activity assessed as DPPH-radical scavenging activity; assay type: functional
Ileum [3] = test: Inhibition of prostaglandin E2-induced contraction in Hartley guinea pig ileum at 64 umol by modified Magnus assay; assay type: functional, tissue-based; conditions: Cavia porcellus
Ileum [4] = test: Inhibition of prostaglandin E1-induced contraction in Hartley guinea pig ileum at 126 umol by modified Magnus assay; assay type: functional, tissue-based; conditions: Cavia porcellus
Ileum [5] = test: Inhibition of prostaglandin E2-induced contraction in Hartley guinea pig ileum at 76 umol by modified Magnus assay; assay type: functional, tissue-based; conditions: Cavia porcellus
Ileum [6] = test: Inhibition of prostaglandin E2-induced contraction in Hartley guinea pig ileum at 48 umol by modified Magnus assay; assay type: functional, tissue-based; conditions: Cavia porcellus
Ileum [7] = test: Inhibition of prostaglandin E1-induced contraction in Hartley guinea pig ileum at 16 umol by modified Magnus assay; assay type: functional, tissue-based; conditions: Cavia porcellus

CC1(C)CC[C@]2(C(=O)O)CC[C@]3(C)C(=CC[C@@H]4[C@@]5(C)C[C@@H](O)[C@H](O)C(C)(C)[C@@H]5CC[C@]43C)[C@@H]2C1
Activity (Ileum [1]): Active | Activity [2]: inactive | Activity (Ileum [3]): Active

O=C(N[C@H](COC(=O)[C@H](Cc1ccccc1)NC(=O)c1ccccc1)Cc1ccccc1)c1ccccc1
Activity [2]: inactive

C=CC(C)(O)CC(O)[C@]1(C)C2=C([C@H](OC(C)=O)C[C@@H]1C)[C@@](C)(COC(C)=O)C(=O)CC2 (stereo partly drawn)
Activity [2]: inactive

C=C[C@]1(C)C=C2C(=O)C[C@H]3C(C)(C)[C@@H](O[C@@H]4O[C@H](CO)[C@@H](O)[C@H](O)[C@H]4O[C@@H]4O[C@H](CO[C@@H]5O[C@H](CO)[C@@H](O)[C@H](O)[C@H]5O)[C@@H](O)[C@H](O)[C@H]4O)CC[C@]3(C)[C@H]2CC1
Activity [2]: inactive | Activity (Ileum [4]): Active | Activity (Ileum [5]): Active

C[C@@H]1CC(=O)[C@H]2C(C)(C)[C@@H](O)CC[C@]2(C)[C@@]12CC[C@@]1(CCOC1O)O2 (mixture of isomers)
Activity [2]: inactive

C=CC(C)(O)CC(OC(C)=O)[C@]1(C)C2=C([C@H](OC(C)=O)C[C@@H]1C)[C@@](C)(COC(C)=O)C(=O)CC2 (stereo partly drawn)
Activity [2]: inactive | Activity (Ileum [4]): Active | Activity (Ileum [5]): Active

C=C[C@]1(C)C=C2C(=O)C[C@H]3C(C)(C)[C@@H](O[C@@H]4O[C@H](CO[C@@H]5O[C@H](CO)[C@@H](O)[C@H](O)[C@H]5O)[C@@H](O)[C@H](O)[C@H]4O[C@@H]4O[C@@H](C)[C@H](O)[C@@H](O)[C@H]4O)CC[C@]3(C)[C@H]2CC1
Activity (Ileum [1]): Active | Activity [2]: inactive | Activity (Ileum [3]): Active

C=C[C@]1(C)C=C2C(=O)C[C@H]3C(C)(C)[C@@H](O[C@@H]4O[C@H](CO)[C@@H](O)[C@H](O)[C@H]4O[C@@H]4O[C@H](CO)[C@@H](O)[C@H](O)[C@H]4O)CC[C@]3(C)[C@H]2CC1
Activity [2]: inactive | Activity (Ileum [6]): Active | Activity (Ileum [7]): Active
